Test: mn = molality of the nth substance listed, in mol/kg
Settings: 100 kPa, Liquid; for viscosity: Capillary tube (Ostwald / Ubbelohde) method; for speed of sound: Frequency=3 MHz, Single path-length method; for mass density: Vibrating tube method

C[C@H](CCC(=O)[O-])[C@H]1CC[C@H]2[C@@H]3CC[C@@H]4C[C@H](O)CC[C@]4(C)[C@H]3C[C@H](O)[C@]12C.[Na+] [sodium deoxycholate] + O
Settings	mass density [kg/m3]	speed of sound [m/s]	viscosity [mPa·s]
293.15 K, m1 = 0.001	998.38	1483.7	1.003
293.15 K, m1 = 0.002	998.49	1484.1	1.004
293.15 K, m1 = 0.003	998.58	1484.5	1.006
293.15 K, m1 = 0.004	998.67	1484.7	1.009
293.15 K, m1 = 0.005	998.75	1484.9	1.014
293.15 K, m1 = 0.006	998.83	1485.2	1.027
293.15 K, m1 = 0.007	998.92	1485.4	1.036
293.15 K, m1 = 0.008	999.01	1485.6	1.04
293.15 K, m1 = 0.009	999.11	1485.8	1.045
293.15 K, m1 = 0.01	999.21	1486	1.047
293.15 K, m1 = 0.011	999.32	1486.2	1.05
293.15 K, m1 = 0.012	999.4	1486.4	1.051
298.15 K, m1 = 0.001	997.22	1497.4	0.892
298.15 K, m1 = 0.002	997.31	1497.6	0.893
298.15 K, m1 = 0.003	997.39	1497.9	0.894
298.15 K, m1 = 0.004	997.48	1498.1	0.897
298.15 K, m1 = 0.005	997.56	1498.3	0.902
298.15 K, m1 = 0.006	997.65	1498.6	0.915
298.15 K, m1 = 0.007	997.73	1498.8	0.924
298.15 K, m1 = 0.008	997.83	1499	0.928
298.15 K, m1 = 0.009	998.01	1499.3	0.932
298.15 K, m1 = 0.01	998.11	1499.5	0.934
298.15 K, m1 = 0.011	998.2	1499.7	0.937
298.15 K, m1 = 0.012	998.2	1499.9	0.938
303.15 K, m1 = 0.001	995.81	1509.6	0.799
303.15 K, m1 = 0.002	995.91	1509.8	0.8
303.15 K, m1 = 0.003	995.98	1510	0.801
303.15 K, m1 = 0.004	996.07	1510.2	0.804
303.15 K, m1 = 0.005	996.14	1510.4	0.809
303.15 K, m1 = 0.006	996.22	1510.7	0.822
303.15 K, m1 = 0.007	996.3	1510.9	0.83
303.15 K, m1 = 0.008	996.39	1511.2	0.834
303.15 K, m1 = 0.009	996.48	1511.4	0.839
303.15 K, m1 = 0.01	996.58	1511.6	0.841
303.15 K, m1 = 0.011	996.66	1511.9	0.843
303.15 K, m1 = 0.012	996.75	1512	0.846
308.15 K, m1 = 0.001	994.18	1520.1	0.72
308.15 K, m1 = 0.002	994.27	1520.4	0.721
308.15 K, m1 = 0.003	994.35	1520.6	0.722
308.15 K, m1 = 0.004	994.44	1520.8	0.726
308.15 K, m1 = 0.005	994.52	1521.2	0.73
308.15 K, m1 = 0.006	994.59	1521.5	0.743
308.15 K, m1 = 0.007	994.68	1521.7	0.752
308.15 K, m1 = 0.008	994.77	1522	0.756
308.15 K, m1 = 0.009	994.84	1522.2	0.76
308.15 K, m1 = 0.01	994.93	1522.4	0.763
308.15 K, m1 = 0.011	995.02	1522.2	0.764
308.15 K, m1 = 0.012	995.1	1522.4	0.766
313.15 K, m1 = 0.001	992.3	1529.2	0.654
313.15 K, m1 = 0.002	992.45	1529.4	0.655
313.15 K, m1 = 0.003	992.53	1529.6	0.657
313.15 K, m1 = 0.004	992.61	1529.8	0.659
313.15 K, m1 = 0.005	992.69	1529.9	0.664
313.15 K, m1 = 0.006	992.76	1530.1	0.678
313.15 K, m1 = 0.007	992.84	1530.3	0.686
313.15 K, m1 = 0.008	992.93	1530.5	0.69
313.15 K, m1 = 0.009	993.01	1530.7	0.694
313.15 K, m1 = 0.01	993.1	1530.9	0.695
313.15 K, m1 = 0.011	993.2	1531	0.699
313.15 K, m1 = 0.012	993.28	1531.2	0.699

C[C@H](CCC(=O)[O-])[C@H]1CC[C@H]2[C@@H]3[C@H](O)C[C@@H]4C[C@H](O)CC[C@]4(C)[C@H]3C[C@H](O)[C@]12C.[Na+] [sodium cholate] + O
Settings	mass density [kg/m3]	speed of sound [m/s]	viscosity [mPa·s]
293.15 K, m1 = 0.002	998.46	1483.6	1.004
293.15 K, m1 = 0.004	998.67	1484.3	1.007
293.15 K, m1 = 0.006	998.88	1484.8	1.011
293.15 K, m1 = 0.008	999.1	1485.3	1.016
293.15 K, m1 = 0.01	999.32	1486	1.021
293.15 K, m1 = 0.012	999.53	1486.7	1.025
293.15 K, m1 = 0.014	999.76	1487.3	1.032
293.15 K, m1 = 0.016	999.98	1487.8	1.037
293.15 K, m1 = 0.018	1000.2	1488.3	1.041
293.15 K, m1 = 0.02	1000.41	1488.8	1.044
293.15 K, m1 = 0.022	1000.63	1489	1.048
293.15 K, m1 = 0.024	1000.83	1489.6	1.051
298.15 K, m1 = 0.002	997.29	1497.5	0.893
298.15 K, m1 = 0.004	997.5	1498	0.896
298.15 K, m1 = 0.006	997.7	1498.6	0.899
298.15 K, m1 = 0.008	997.91	1499.2	0.903
298.15 K, m1 = 0.01	998.13	1499.9	0.906
298.15 K, m1 = 0.012	998.34	1500.5	0.911
298.15 K, m1 = 0.014	998.56	1501	0.918
298.15 K, m1 = 0.016	998.77	1501.6	0.922
298.15 K, m1 = 0.018	998.97	1502	0.926
298.15 K, m1 = 0.02	999.19	1502.3	0.93
298.15 K, m1 = 0.022	999.39	1502.8	0.933
298.15 K, m1 = 0.024	999.6	1503.3	0.936
303.15 K, m1 = 0.002	995.88	1509.8	0.8
303.15 K, m1 = 0.004	996.08	1510.2	0.803
303.15 K, m1 = 0.006	996.29	1510.8	0.806
303.15 K, m1 = 0.008	996.49	1511.3	0.809
303.15 K, m1 = 0.01	996.7	1511.9	0.813
303.15 K, m1 = 0.012	996.91	1512.4	0.817
303.15 K, m1 = 0.014	997.12	1512.9	0.823
303.15 K, m1 = 0.016	997.34	1513.4	0.827
303.15 K, m1 = 0.018	997.54	1513.8	0.831
303.15 K, m1 = 0.02	997.74	1514.2	0.835
303.15 K, m1 = 0.022	997.94	1514.7	0.838
303.15 K, m1 = 0.024	998.14	1515.1	0.841
308.15 K, m1 = 0.002	994.26	1520.5	0.722
308.15 K, m1 = 0.004	994.46	1520.9	0.725
308.15 K, m1 = 0.006	994.66	1521.4	0.727
308.15 K, m1 = 0.008	994.87	1521.9	0.73
308.15 K, m1 = 0.01	995.08	1522.4	0.734
308.15 K, m1 = 0.012	995.29	1522.9	0.737
308.15 K, m1 = 0.014	995.5	1523.4	0.742
308.15 K, m1 = 0.016	995.7	1523.9	0.747
308.15 K, m1 = 0.018	995.9	1524.4	0.751
308.15 K, m1 = 0.02	996.1	1524.8	0.755
308.15 K, m1 = 0.022	996.29	1525.2	0.758
308.15 K, m1 = 0.024	996.49	1525.6	0.76
313.15 K, m1 = 0.002	992.43	1529.5	0.655
313.15 K, m1 = 0.004	992.63	1529.8	0.658
313.15 K, m1 = 0.006	992.84	1530.3	0.66
313.15 K, m1 = 0.008	993.04	1530.8	0.663
313.15 K, m1 = 0.01	993.24	1531.2	0.666
313.15 K, m1 = 0.012	993.45	1531.7	0.67
313.15 K, m1 = 0.014	993.66	1532.2	0.675
313.15 K, m1 = 0.016	993.85	1532.6	0.679
313.15 K, m1 = 0.018	994.05	1533.1	0.684
313.15 K, m1 = 0.02	994.24	1533.5	0.686
313.15 K, m1 = 0.022	994.45	1533.8	0.689
313.15 K, m1 = 0.024	994.64	1534.2	0.691

Source: the NIST ThermoML archive (doi:10.1021/acs.jced.8b00509)
